This note sets out measurements from patent EP0231151A2, “Immunosuppressant agents” (priority 1986, dated 1987).

Data set [1] addresses 5-HT sensitive adenylate cyclase. Put plainly: Activation of 5-HT sensitive adenylate cyclase of the liver fluke (method of Markstein). The data set is classed as biochemical. To be noted: adenylate cyclase stimulated by serotonin. From the text: A group of compounds comprises compounds which are D₂ agonists without any antagonistic activity. Another group of compounds includes those compounds which are serotonin agonists, e.g. as indicated in standard in vitro binding tests and by activation of 5-HT sensitive adenylate cyclase of the liver fluke according to the method of R.Markstein, Neurochemical effects of some ergot derivatives: A basis for their antiparkinson actions. J.Neural transm 51:39, (1981).
Examples of such compounds include compound C and pergolide. Compound C, pergolide and 5-HT have efficacies of 90,80 and 100 respectively and pD₂ [log EC₅₀] of 6.9, 6.9 and 7.7 respectively in this test on adenylate cyclase stimulated by serotonin.

The test system of data set [2] is adjuvant arthritis. Put plainly: Freund's adjuvant arthritis in the rat, hind limb thickness. It is filed as in vivo. As to conditions: 0.1 mg/kg/day s.c. osmotic pump. The method, then: One test model is a rodent model of developing autoimmune adjuvant arthritis. An inhibition of the development of adjuvant arthritis is observed.
In one variante, Myobacterium Butyricum purchased from Difco Laboratories, Detroit, Michigan, was prepared in an emulsion with paraffin subliquidium PHHVI (Siegried Zofingen, Switzerland) at a concentration of 6 mg/ml. During ether anaesthesia a volume of 0.1 ml of this emulsion was injected with a 21 g 1-1/2 inch needle intracutaneously at the base of the tail of male Sprague-Dawley rats (ca 150-175 g). Arthritis occurred in 95% to 100% of the hind legs in the positive control animals. The hind limb (mid-tibial region) thickness was measured with a linear guage (Mitutoyo) coupled to an electronic digital readout (Mitutoyo).
100% of a control group developed adjuvant arthritis. The compounds of the invention are administered by means of a sub-cutaneously sustained osmotic pump, over 7 days or 14 days to groups of 5 animals. Progression of the arthritis and the inhibiting effect of a representative compound, compound B, at 0.1 mg/kg/day are as follows:-

Data set [3] concerns basal serum prolactin levels. Put plainly: Lowering basal serum prolactin levels in the male rat (prolactin secretion inhibition). The data set is classed as in vivo. To be noted: Rattus norvegicus, 4 h, read-out: ID50 after 4 hours. From the text: Many of the above mentioned compounds are published as prolactin secretion inhibitors, some of which are extremely potent and have long lasting activity. The potency of the compounds as prolactin secretion inhibitors can be determined in standard tests, e.g. by lowering basal serum prolactin levels in the male rat.
Results with representative compounds include:-

Data set [4] can be described thus: No toxic effect level (NTEL), repeated oral dosing in rats. As to conditions: rat, in vivo, 26 weeks, p.o. From the text: (§1) Toxicity data for some of the comounds of the invention have been published. Such data may be determined by routine experimentation. TOXICITY DATA for representative compounds NTEL = No toxic effect level.
Data set [5] can be described thus: Acute toxicity (LD50) in the mouse. To be noted: in vivo.
Description: as §1

Data set [6] can be described thus: No toxic effect level (NTEL) / tolerability, repeated oral dosing in dogs. As to conditions: dog, in vivo, no toxic effect level, 26 weeks, p.o.
Description: as §1

On to `NCCc1c[nH]c2ccc(O)cc12` [Compound 5-HT], for which the “pD₂ [log EC₅₀]” value in data set [1] stood at 7.7. The compound also returned an efficacies in data set [1] (5-HT = 100) of 100.

Consider `CN1C[C@@H](NS(=O)(=O)N(C)C)C[C@@H]2c3cccc4c3c(cn4C)C[C@H]21` [Compound B, 1,6-dimethyl-8α-(N,N-dimethylsulphamoylamino)-ergoline-I], for which the “Hind Limb Thickness (mm)” value in data set [2] (Day 0, 7 days dosing) is listed as 6.1 mm; in data set [2] (Day 0, 14 days dosing), 6.0 mm; in data set [2] (Day 3, 7 days dosing), 6.2 mm; in data set [2] (Day 3, 14 days dosing), 6.2 mm; in data set [2] (Day 6, 7 days dosing), 6.2 mm; in data set [2] (Day 6, 14 days dosing), 6.2 mm. For the same compound, the “Hind Limb Thickness (mm)” value amounted to 6.5 mm in data set [2] (Day 9, 7 days dosing); 6.7 mm in data set [2] (Day 9, 14 days dosing); 6.9 mm in data set [2] (Day 12, 7 days dosing); 7.7 mm in data set [2] (Day 12, 14 days dosing); 7.6 mm in data set [2] (Day 15, 7 days dosing); 7.8 mm in data set [2] (Day 15, 14 days dosing). In addition, the “Hind Limb Thickness (mm)” value in data set [2] (Day 18, 7 days dosing) worked out at 7.9 mm; in data set [2] (Day 18, 14 days dosing), 7.9 mm; in data set [2] (Day 21, 7 days dosing) it was 8.2 mm; in data set [2] (Day 21, 14 days dosing), 8.2 mm. In data set [3], the ED50 came out at 0.003 mg/kg.

One may read the NOAEL as the highest tested level that showed no adverse finding. For the compound `CCN(CC)S(=O)(=O)N[C@H]1C[C@@H]2c3cccc4c3c(cn4CC)C[C@H]2N(C)C1` [Compound D, N,N-diethyl-Nʹ-[(8α)-1-ethyl-6-methyl-ergolin-8-yl]-sulfamide], the NOAEL at 4368 h in data set [4] was 5 to 17 mg/kg/day; in data set [6] it was 0.3 mg/kg/day. Further, the LD50 at 168 h in data set [5] (iv, over 7 days, read-out: acute LD₅₀ (mouse) i.v.) was 44 mg/kg. In data set [5] (po, over 14 days, read-out: acute LD₅₀ (mouse) p.o.), the LD50 at 336 h worked out at 992 mg/kg.

For `CCCN1C[C@H](CSC)C[C@@H]2c3cccc4[nH]cc(c34)C[C@H]21` [pergolide, 6-n-propyl-8α-methylmercaptomethyl-ergoline-I], in data set [1], the “pD₂ [log EC₅₀]” value is listed as 6.9.
